The assay addresses GABA-B receptor (Rattus norvegicus (Rat), UniProt O88871+Q9Z0U4). The assay is described as follows: [35S]GTPgS Binding Assay (rat brain cortex membranes, native receptor). It is filed as biochemical. The conditions noted are these: rat cortical membranes; in the presence of 1 μM GABA (EC25); basal binding 0%, maximal binding (1 mM GABA) 100%. The procedure: Preparation of Rat Brain Membranes for Native Receptor Assays
Membranes from rat brain cortex were prepared as described in detail by Olpe et al. and stored at concentrations of 1.66 mg/mL protein at −80° C. until required. (Olpe, H.-R, et al. Eur J Pharmacol 1990; 187: 27-38).
[^35S]GTPgS Binding Assay
The samples were incubated at room temperature for 60 minutes on a shaker. The incubation was stopped by rapid vacuum filtration over glass-fiber filter plates (UniFilter-96 well, GF/B membrane plates, PerkinElmer) using a 96-well plate harvester (TOMTEK© Harvester). The UniFilter plate was washed five times with ice-cold wash buffer (50 mM Tris-HCl buffer, pH 7.7, 10 mM MgCl2, and 100 mM NaCl. After filtration the plate was dried for 90 minutes at 55° C. The plates were closed on the bottom with black sealing membranes, and liquid scintillation cocktail (35 μL, Betaplate Scint, PerkinElmer) was added to each well. After sealing the top of the plate, an additional incubation step of 90 minutes at room temperature followed before measuring the plate. The amount of membrane-bound [^35S]GTPgS was measured using a 96-well plate reader (Microbeta®, PerkinElmer). Nonspecific binding was measured in the presence of unlabeled 10 μM of GTPgS (Millipore) and without GABA. Basal binding was measured in the absence of 1 μM GABA, and maximal binding was measured in the presence of GABA using 1 mM GABA concentrations.
Data analysis. The concentration-response curves of compounds of the present disclosure in the presence of EC25 of GABA-B receptor agonist were generated using the GraphPad Prism® program (GraphPad Software, San Diego, Calif.). Data was normalized using basal binding as 0% and maximal binding as 100%. The curves were fitted by nonlinear regression allowing determination of EC50 values from sigmoidal dose-response curves. Each curve was performed using triplicate sample per date point and 10 concentrations.
On the technique in general: Binding of GTPγS marks nucleotide exchange on a G protein.
Chain of GABA-B receptor (Q9Z0U4 17-960): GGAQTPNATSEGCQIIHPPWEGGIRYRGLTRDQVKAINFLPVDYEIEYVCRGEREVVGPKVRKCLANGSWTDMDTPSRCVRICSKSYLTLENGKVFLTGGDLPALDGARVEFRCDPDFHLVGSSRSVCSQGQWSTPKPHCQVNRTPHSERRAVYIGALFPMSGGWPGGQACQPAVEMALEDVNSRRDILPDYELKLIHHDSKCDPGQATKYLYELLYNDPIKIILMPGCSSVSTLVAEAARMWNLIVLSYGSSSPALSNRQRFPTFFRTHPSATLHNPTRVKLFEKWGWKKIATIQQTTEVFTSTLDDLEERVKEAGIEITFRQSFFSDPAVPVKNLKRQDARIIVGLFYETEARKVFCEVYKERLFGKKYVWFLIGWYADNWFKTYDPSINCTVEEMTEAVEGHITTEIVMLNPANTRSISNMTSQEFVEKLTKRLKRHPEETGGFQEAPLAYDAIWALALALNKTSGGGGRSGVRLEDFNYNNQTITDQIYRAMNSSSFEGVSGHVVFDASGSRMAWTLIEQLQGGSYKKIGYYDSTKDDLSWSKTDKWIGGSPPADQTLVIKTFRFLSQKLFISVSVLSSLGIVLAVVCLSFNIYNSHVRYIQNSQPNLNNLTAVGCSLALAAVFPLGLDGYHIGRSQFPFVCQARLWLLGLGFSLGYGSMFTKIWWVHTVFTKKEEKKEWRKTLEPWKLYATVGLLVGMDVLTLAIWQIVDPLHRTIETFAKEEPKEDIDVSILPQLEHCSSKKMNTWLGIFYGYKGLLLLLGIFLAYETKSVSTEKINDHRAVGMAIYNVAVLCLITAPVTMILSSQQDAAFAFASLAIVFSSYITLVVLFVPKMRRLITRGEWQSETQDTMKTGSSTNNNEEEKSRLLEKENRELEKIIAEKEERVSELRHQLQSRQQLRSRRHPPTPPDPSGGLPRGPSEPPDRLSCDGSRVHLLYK
Chain of GABA-B receptor (O88871 41-940): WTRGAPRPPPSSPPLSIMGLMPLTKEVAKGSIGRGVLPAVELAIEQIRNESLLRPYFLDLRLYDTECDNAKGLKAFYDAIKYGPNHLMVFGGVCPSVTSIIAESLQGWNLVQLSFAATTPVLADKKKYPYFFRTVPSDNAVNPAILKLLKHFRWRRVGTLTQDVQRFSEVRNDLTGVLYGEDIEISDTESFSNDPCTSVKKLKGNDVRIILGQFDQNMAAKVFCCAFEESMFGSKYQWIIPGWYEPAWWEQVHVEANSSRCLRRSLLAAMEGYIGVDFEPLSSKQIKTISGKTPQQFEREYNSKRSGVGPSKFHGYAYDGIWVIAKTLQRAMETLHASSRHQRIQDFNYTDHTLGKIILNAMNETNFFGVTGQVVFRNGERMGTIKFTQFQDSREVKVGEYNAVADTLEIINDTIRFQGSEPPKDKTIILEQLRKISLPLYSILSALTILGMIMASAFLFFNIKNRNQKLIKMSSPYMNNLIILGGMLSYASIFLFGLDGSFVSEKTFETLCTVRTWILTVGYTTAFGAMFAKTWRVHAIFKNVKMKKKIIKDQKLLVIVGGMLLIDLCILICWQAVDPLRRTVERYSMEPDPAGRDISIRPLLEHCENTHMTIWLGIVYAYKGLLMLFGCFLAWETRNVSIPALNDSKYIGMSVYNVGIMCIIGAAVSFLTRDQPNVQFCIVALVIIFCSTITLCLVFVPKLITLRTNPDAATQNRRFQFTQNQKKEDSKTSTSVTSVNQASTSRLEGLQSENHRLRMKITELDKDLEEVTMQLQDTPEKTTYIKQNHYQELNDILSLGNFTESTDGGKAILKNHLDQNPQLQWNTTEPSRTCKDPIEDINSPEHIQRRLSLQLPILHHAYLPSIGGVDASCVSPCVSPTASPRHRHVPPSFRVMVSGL
As usually defined, the EC50 is the midpoint of the concentration-response curve. As for `Cc1noc2c(-c3ccc(F)cc3)nn(Cc3ccc(Cl)cc3)c(=O)c12` [Example 83, 5-(4-chlorobenzyl)-7-(4-fluorophenyl)-3-methyl[1,2]oxazolo[4,5-d]pyridazin-4(5H)-one], the concentration giving a half-maximal response (EC50) is 3090 nM.

Consider `CCNC(=O)c1ccc(OC)c(-c2nn(C(C)c3ccc(Cl)cc3)c(=O)c3c(C)noc23)c1` (stereo not drawn) [Example 131], for which the EC50 is 453 nM.

With `COc1ccc(OC)c(-c2nn(Cc3ccc(Cl)cc3)c(=O)c3c(C4CC4)noc23)c1` [Example 47, 5-(4-chlorobenzyl)-3-cyclopropyl-7-(2,5-dimethoxyphenyl)[1,2]oxazolo[4,5-d]pyridazin-4(5H)-one], the EC50 was determined as 578 nM.

As for `Cc1noc2c(-c3ccccc3O)nn(C(C)c3ccc(Cl)cc3)c(=O)c12` (stereo not drawn) [Example 100, 5-[1-(4-chlorophenyl)ethyl]-7-(2-hydroxyphenyl)-3-methyl[1,2]oxazolo[4,5-d]pyridazin-4(5H)-one], the EC50 worked out at 667 nM.

`CC(=O)Nc1cccc(-c2nn(Cc3ccc(Cl)cc3)c(=O)c3c(C)noc23)c1` [Example 70, N-{3-[5-(4-chlorobenzyl)-3-methyl-4-oxo-4,5-dihydro[1,2]oxazolo[4,5-d]pyridazin-7-yl]phenyl}acetamide]: the EC50 came to 935 nM.

Turning to `COc1ccc(OC)c(-c2nn([C@H](C)c3ccc(C(F)(F)F)cc3)c(=O)c3c(C)noc23)c1` [Example 125, 7-(2,5-dimethoxyphenyl)-3-methyl-5-{(1R)-1-[4-(trifluoromethyl)phenyl]ethyl}[1,2]oxazolo[4,5-d]pyridazin-4(5H)-one], the EC50 came out at 582 nM.

Regarding `CC(=O)Nc1cccc(-c2nn([C@@H](C)c3ccc(Cl)cc3)c(=O)c3c(C)noc23)c1` [Example 72, N-(3-{5-[(1S)-1-(4-chlorophenyl)ethyl]-3-methyl-4-oxo-4,5-dihydro[1,2]oxazolo[4,5-d]pyridazin-7-yl}phenyl)acetamide], the EC50 worked out at 7700 nM.

With `Cc1nn([C@@H](C)c2ccc(Cl)cc2)c(=O)c2c(C)noc12` (single isomer, unassigned) [Example 31], the EC50 was found to be 1810 nM.

For the compound `COc1ccc(OC)c(-c2nn([C@@H](C)c3ccc(Cl)cc3)c(=O)c3c(C4CC4)noc23)c1` [Example 68, 5-[(1S)-1-(4-chlorophenyl)ethyl]-3-cyclopropyl-7-(2,5-dimethoxyphenyl)[1,2]oxazolo[4,5-d]pyridazin-4(5H)-one], the EC50 worked out at 48 nM.

Turning to `COc1ccc(NC(C)=O)cc1-c1nn(C(C)c2ccc(C(F)(F)F)cc2)c(=O)c2c(C)noc12` (stereo not drawn) [Example 103, N-[4-methoxy-3-(3-methyl-4-oxo-5-{(1)-1-[4-(trifluoromethyl)phenyl]ethyl}-4,5-dihydro[1,2]oxazolo[4,5-d]pyridazin-7-yl)phenyl]acetamide], the concentration giving a half-maximal response (EC50) stood at 439 nM.

Consider `COc1ccc(C(N)=O)cc1-c1nn(C(C)c2ccc(Cl)cc2)c(=O)c2c(C)noc12` (stereo not drawn) [Example 59], for which the EC50 is 17 nM.

For the compound `CNC(=O)c1ccc(OC)c(-c2nn([C@H](C)c3ccc(Cl)cc3)c(=O)c3c(C)noc23)c1` [Example 111, 3-{5-[(1R)-1-(4-chlorophenyl)ethyl]-3-methyl-4-oxo-4,5-dihydro[1,2]oxazolo[4,5-d]pyridazin-7-yl}-4-methoxy-N-methylbenzamide], the EC50 is > 10000 nM.

In the case of `COc1ccc(OC)c(-c2nn(CCc3ccc(Cl)cc3)c(=O)c3c(C)noc23)c1` [Example 10, 5-[2-(4-chlorophenyl)ethyl]-7-(2,5-dimethoxyphenyl)-3-methyl[1,2]oxazolo[4,5-d]pyridazin-4(5H)-one], the half-maximal effective concentration (EC50) came out at 1060 nM.

As to `CC(=O)Nc1c(F)ccc(-c2nn([C@H](C)c3ccc(C(F)(F)F)cc3)c(=O)c3c(C)noc23)c1C` [Example 112, N-[6-fluoro-2-methyl-3-(3-methyl-4-oxo-5-{(1R)-1-[4-(trifluoromethyl)-phenyl]ethyl}-4,5-dihydro[1,2]oxazolo[4,5-d]pyridazin-7-yl)phenyl]acetamide], the half-maximal effective concentration (EC50) is 3630 nM.

As to `CC(=O)Nc1ccc(C)c(-c2nn([C@H](C)c3ccc(C(F)(F)F)cc3)c(=O)c3c(C)noc23)c1` [Example 35, N-[4-methyl-3-(3-methyl-4-oxo-5-{(1R)-1-[4-(trifluoromethyl)phenyl]ethyl}-4,5-dihydro[1,2]oxazolo[4,5-d]pyridazin-7-yl)phenyl]acetamide], the EC50 turned out to be 562 nM.

With `Cc1ccc(O)cc1-c1nn(C(C)c2ccc(Cl)cc2)c(=O)c2c(C)noc12` (stereo not drawn) [Example 16, 5-[1-(4-chlorophenyl)ethyl]-7-(5-hydroxy-2-methylphenyl)-3-methyl[1,2]oxazolo[4,5-d]pyridazin-4(5H)-one], the concentration giving a half-maximal response (EC50) was 222 nM.

Take `CCc1noc2c(-c3cccc(NC(C)=O)c3)nn(Cc3ccc(Cl)cc3)c(=O)c12` [Example 129, N-{3-[5-(4-chlorobenzyl)-3-ethyl-4-oxo-4,5-dihydro[1,2]oxazolo[4,5-d]pyridazin-7-yl]phenyl}acetamide]: the half-maximal effective concentration (EC50) is 2110 nM.

Regarding `Cc1noc2c(-c3cc(F)nc(F)c3)nn(C(C)c3ccc(Cl)cc3)c(=O)c12` (stereo not drawn) [Example 4, 5-[1-(4-chlorophenyl)ethyl]-7-(2,6-difluoropyridin-4-yl)-3-methyl[1,2]oxazolo[4,5-d]pyridazin-4(5H)-one], the half-maximal effective concentration (EC50) was 1660 nM.

With `Cc1noc2c(-c3ccc4cc[nH]c4c3)nn(C(C)c3ccc(Cl)cc3)c(=O)c12` (stereo not drawn) [Example 12, 5-[1-(4-chlorophenyl)ethyl]-7-(1H-indol-6-yl)-3-methyl[1,2]oxazolo[4,5-d]pyridazin-4(5H)-one], the EC50 came out at 347 nM.

Consider `Cc1noc2c(-c3cccc(NS(C)(=O)=O)c3)nn(C(C)c3ccc(Cl)cc3)c(=O)c12` (stereo not drawn) [Example 24, N-(3-{5-[1-(4-chlorophenyl)ethyl]-3-methyl-4-oxo-4,5-dihydro[1,2]oxazolo[4,5-d]pyridazin-7-yl}phenyl)methanesulfonamide], for which the concentration giving a half-maximal response (EC50) turned out to be 1850 nM.

Regarding `CC(=O)Nc1cc(-c2nn(Cc3ccc(Cl)cc3)c(=O)c3c(C)noc23)ccc1F` [Example 8], the EC50 was determined as 2110 nM.

Turning to `Cc1noc2c(-c3ccc(F)cc3)nn(Cc3ccc(Cl)c(C(F)(F)F)c3)c(=O)c12` [Example 28, 5-[4-chloro-3-(trifluoromethyl)benzyl]-7-(4-fluorophenyl)-3-methyl[1,2]oxazolo[4,5-d]pyridazin-4(5H)-one], the EC50 was found to be 3470 nM.

As for `COc1ccc(NC(C)=O)cc1-c1nn([C@@H](C)c2ccc(Cl)cc2)c(=O)c2c(C3CC3)noc12` [Example 1, N-(3-{5-[(1S)-1-(4-chlorophenyl)ethyl]-3-cyclopropyl-4-oxo-4,5-dihydro[1,2]oxazolo[4,5-d]pyridazin-7-yl}-4-methoxyphenyl)acetamide], the concentration giving a half-maximal response (EC50) was found to be 51 nM.

As to `COc1ccc(NC(C)=O)cc1-c1nn(Cc2ccc(C(F)(F)F)cc2)c(=O)c2c(C)noc12` [Example 64, N-(4-methoxy-3-{3-methyl-4-oxo-5-[4-(trifluoromethyl)benzyl]-4,5-dihydro[1,2]oxazolo[4,5-d]pyridazin-7-yl}phenyl)acetamide], the half-maximal effective concentration (EC50) is 644 nM.

For the compound `COc1ccccc1-c1nn(Cc2ccc(Cl)cc2)c(=O)c2c(C)noc12` [Example 67, 5-(4-chlorobenzyl)-7-(2-methoxyphenyl)-3-methyl[1,2]oxazolo[4,5-d]pyridazin-4(5H)-one], the EC50 was 2130 nM.

As for `COc1ccc(NC(C)=O)cc1-c1nn([C@H](C)c2ccc(C(F)(F)F)cc2)c(=O)c2c(C)noc12` [Example 105, N-[4-methoxy-3-(3-methyl-4-oxo-5-{(1R)-1-[4-(trifluoromethyl)phenyl]ethyl}-4,5-dihydro[1,2]oxazolo[4,5-d]pyridazin-7-yl)phenyl]acetamide], the EC50 turned out to be 33 nM.

On to `COc1ccc(OC)c(-c2nn(C(C)c3ccc(Cl)cc3)c(=O)c3c(C)noc23)c1` (stereo not drawn) [Example 21, 5-[1-(4-chlorophenyl)ethyl]-7-(2,5-dimethoxyphenyl)-3-methyl[1,2]oxazolo[4,5-d]pyridazin-4(5H)-one], for which the EC50 is 229 nM.

Take `COc1ccc(NC(C)=O)cc1-c1nn(C(C)c2ccc(Cl)cc2)c(=O)c2c(C)noc12` (stereo not drawn) [Example 39, N-(3-{5-[1-(4-chlorophenyl)ethy]-3-methyl-4-oxo-4,5-dihydro[1,2]oxazolo[4,5-d]pyridazin-7-yl}-4-methoxyphenyl)acetamide]: the 50% effective concentration (EC50) amounted to 105 nM.

As for `CC(=O)Nc1cccc(-c2nn(Cc3ccc(C(F)(F)F)cc3)c(=O)c3c(C)noc23)c1` [Example 57, N-(3-{3-methyl-4-oxo-5-[4-(trifluoromethyl)benzyl]-4,5-dihydro[1,2]oxazolo[4,5-d]pyridazin-7-yl}phenyl)acetamide], the half-maximal effective concentration (EC50) turned out to be 3330 nM.

As to `Cc1noc2c(-c3cccc(S(N)(=O)=O)c3)nn(C(C)c3ccc(Cl)cc3)c(=O)c12` (stereo not drawn) [Example 53, 3-{5-[1-(4-chlorophenyl)ethyl]-3-methyl-4-oxo-4,5-dihydro[1,2]oxazolo[4,5-d]pyridazin-7-yl}benzenesulfonamide], the 50% effective concentration (EC50) stood at 620 nM.

The record behind these values is patent US10556914B2, “Substituted isoxazolopyridazinones and isothiazolopyridazinones and methods of use” (AbbVie Inc., priority 2015, dated 2020).
